Laboratory results from US6884907B2, “Hydroxamic acids and acyl hydroxamines as naaladase inhibitors” (Guilford Pharmaceuticals Inc., priority 2001, dated 2005).

Legend:
NAALADase = biological target: T1, NAALADase (Homo sapiens, UniProt Q04609); experiment: In vitro inhibition of NAALADase activity; format: biochemical; details: average IC50 values
T1 construct: from tissue; host or cells: unspecified tissue
Experimental: Various compounds of the invention were tested for in vitro inhibition of NAALADase activity. The average IC50 values of the tested compounds are provided bewlow in Table II.
Protocol for Assaying In Vitro Inhibition of NAALADase Activity
The following were combined in assay tubes: 100 μL of 10 mM CoCl2, 250 μL of 200 mM Tris chloride, 100 μL tissue, 100 μL of 10 mM NAALADase inhibitor in Bakers H2O, and Bakers H2O to make a total volume of 950 μL. Each assay tube was then incubated for 10 minutes in a 37° C. water bath. 50 μL of 3-H-NAAG was then added to each assay tube and incubated for an additional 15 minutes in at 37° C. water bath. The assay was stopped by adding 1.0 ml of 0.1 M sodium phosphate.
Glutamate released by the action of the NAALADase enzyme was separated from the assay solution using an anion exchange resin. The resin was equilibrated to 25° C., 2.0 ml of the resin was added to a Pasteur pipette pre-loaded with a single glass bead, and each column was washed twice with distilled H2O. A column was placed over a scintillation vial and 200 μL of an assay sample was loaded onto the column. After draining, glutamate was eluted using two 1.0 ml washes of 1 M formic acid. After addition of 10 ml of scintillation cocktail, each sample was counted for 2 minutes on a scintillation counter.

STZ-diabetic animals = experiment: Diabetic neuropathy in STZ model (nerve conduction velocity); format: in vivo, rats; details: either dose (1 or 10 mg/kg), versus diabetic controls, FIGS. 10A and 10B
Experimental: Motor and sensory nerve conduction velocity was also measured in STZ-diabetic animals after 4, 8 and 12 weeks of treatment (see De Koning et al., supra, for a description of the experimental method). Briefly, stimulating needle electrodes were inserted close to the sciatic and tibial nerves with recording electrodes being placed subcutaneously over the distal foot muscles, in anesthetized rats.

BB/W diabetic rats = experiment: Progression of neuropathic pain and nerve conduction deficits in BB/W model; format: in vivo, Male BB/W rats
Excerpt: Male BB/W rats (BRI, Mass) spontaneously develop a cell mediated autoimmune destruction of pancreatic B cells, resulting in onset of insulin-dependent (Type I) diabetes (Guberski 1994). […] This renders them valuable for experimental trials of new compounds for future treatments of this major disorder. In the present study, Compound D and Compound A were examined for their ability to alter the progression of diabetic neuropathy. The rats received daily injection of Compound D or Compound A (10 mg/kg i.p.) or vehicle, starting at the onset of diabetes (hyperglycemia) and up to 6 months thereafter. Another group of non-diabetic rats also receiving vehicle were tested. All animals were continuously monitored for body weight, urine volume, blood sugar and glycated haemoglobin. In the first month of the study, all animals were tested for thermal nociception in a Hargreaves apparatus, weekly. After the first month this was done biweekly and then monthly. The testing consists of directing an infrared heat source onto the dorsal surface of the rat hindpaw and noting the time taken for the animal to remove its paw (see Hargreaves et al., supra, for a description of the experimental method). Each animal was tested 8 times and the mean withdrawal latency noted.
Nerve conduction velocity was also measured every two weeks through the first eight weeks of treatment and every month thereafter through to the six months of treatment (see De Koning et al., Peptides, Vol. 8, No. 3, pp. 415-22 (1987) for a description of the experimental method). […] This was apparent starting at 8 weeks of treatment and persisted to a similar degree through to the six month termination point of the study.

STZ-diabetic rats [1] = experiment: Reversal of diabetic neuropathy in STZ model, delayed dosing: thermal hyperalgesia; format: in vivo; details: for neuropathic hyperalgesia (withdrawal latency): daily p.o., treatment started 5 weeks post STZ, within two weeks of treatment, FIG. 20
Experimental: (§1) Rats (200-225 grams) were injected with STZ (70 mg/kg) into the tail vein. Diabetes (>350 mg/dl) was confirmed in all rats, 4 weeks after STZ administration. Rats were left untreated until 35-49 days after STZ. Compound D (1, 3, or 10 mg/kg), Compound E (10 mg/kg), or vehicle were dosed daily p.o. following confirmation of hyperalgesia and/or nerve conduction velocity deficits. In separate experiments, onset of treatment was delayed until 60 to 90 days after STZ administration. Nerve conduction velocity or withdrawal response to thermal stimulation of hind paws was measured at intervals, usually bi-weekly for thermal response and monthly for nerve conduction velocity.
Animals were acclimated to the apparatus for at least 5 min. An infrared source was placed under below the plantar surface of the rat hind-paw. The intensity of the source was adjusted so that latency for normal rats was about 10 secs. Animals were tested for thermal response latency according to the method of Hargreaves et al (Pain 77-88, 1988). Each animal was tested 8 times (4 each hind limb) and the latency of response recorded automatically to nearest 0.1 sec. An average of the last 4 measurements for each paw was calculated (8 total measurements) and noted for each rat.

[2] = tested on: STZ-induced diabetic rats; experiment: Neuropathic pain in STZ model (thermal nociception, Hargreaves apparatus); format: in vivo, Male Sprague-Dawley rats; details: 10 mg/kg i.p. daily, treatment started 45 days post-STZ, FIGS. 7A and 7B
Experimental: Male Sprague-Dawley rats (200-225 g) were rendered diabetic by intravenous administration of streptozotocin (“STZ”, 70 mg/kg in phosphate buffered saline). Diabetic animals were divided into five groups: one group receiving Compound A (10 mg/kg or 1 mg/kg), Compound D (10 mg/kg or 1 mg/kg) or vehicle. Another group of animals (non-STZ treated) served as non-diabetic controls. Drug/vehicle treatment was started in diabetic animals 45 days post-STZ administration. STZ-induced diabetic rats were tested for sensitivity to a heat source as soon as blood glucose levels rose to 320 mg/dl or above (30 days post STZ). The rats were then acclimated to a Hargreaves apparatus and thermal nociception was monitored using an infrared heat source directed into the dorsal surface of the hindpaw, and the time taken for the animal to remove its paw noted to the nearest 0.1 seconds (see Hargreaves et al., supra, for detailed experimental method). The intensity of the beam source was adjusted such that the mean latency for control animals (non-STZ treated) was approximately 10 seconds. Each animal was tested 8 times and the mean difference score (between mean non-diabetic control latency and mean diabetic latency) are graphically presented in FIGS. 7A and 7B.

STZ-diabetic rats [3] = experiment: Reversal of diabetic neuropathy in STZ model, delayed dosing: nerve conduction velocity; format: in vivo; details: for motor nerve conduction velocity: daily p.o., within 8 weeks of dosing, persisted through 12 weeks, FIG. 21
Experimental: as §1
Sensory and motor nerve conduction velocities were evaluated using the method of De Koning and Gispen (Peptides 8: 415-422, 1987). Electrophysiological evaluation was carried out within one hour of dosing. Animals were anesthetized with isoflurane and stimulating needle electrodes were inserted close to the sciatic nerve at the sciatic notch and the tibial nerve near the ankle. Recording electrodes were placed over the foot muscles. Stimuli were applied and responses recorded. Motor and sensory nerve conduction velocities were calculated by measuring the distance between the sciatic notch and ankle sites, and the latency between the M-wave and the H-reflex.

T1 sequence (Q04609 whole entry): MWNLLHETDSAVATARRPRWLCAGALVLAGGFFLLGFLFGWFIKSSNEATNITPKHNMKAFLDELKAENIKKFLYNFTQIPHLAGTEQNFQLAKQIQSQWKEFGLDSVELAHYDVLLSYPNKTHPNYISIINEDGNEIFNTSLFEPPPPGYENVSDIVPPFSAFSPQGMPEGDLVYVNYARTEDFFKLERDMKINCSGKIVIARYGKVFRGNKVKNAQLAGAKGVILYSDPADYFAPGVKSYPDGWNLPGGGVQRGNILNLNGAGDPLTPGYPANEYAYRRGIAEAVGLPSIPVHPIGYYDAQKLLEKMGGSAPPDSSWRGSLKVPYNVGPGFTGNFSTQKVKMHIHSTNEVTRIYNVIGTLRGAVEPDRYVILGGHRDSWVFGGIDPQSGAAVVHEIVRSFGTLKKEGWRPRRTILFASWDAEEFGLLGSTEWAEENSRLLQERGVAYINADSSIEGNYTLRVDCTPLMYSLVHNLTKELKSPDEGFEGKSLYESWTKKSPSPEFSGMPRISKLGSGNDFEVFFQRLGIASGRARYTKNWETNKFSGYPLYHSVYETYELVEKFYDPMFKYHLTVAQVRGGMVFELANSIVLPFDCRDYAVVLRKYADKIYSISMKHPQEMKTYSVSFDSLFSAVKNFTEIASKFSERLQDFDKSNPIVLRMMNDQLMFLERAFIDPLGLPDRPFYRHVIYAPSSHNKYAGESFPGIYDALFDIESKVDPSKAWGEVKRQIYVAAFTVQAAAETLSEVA

SMILES | IC50 (NAALADase) [µM] | other results
O=C(O)CNC(=O)c1cc(C(=O)O)cc(C(=O)NO)c1 [Compound 81] | 9 | –
CS(=O)(=O)c1ccc(CC(CCC(=O)NO)C(=O)O)cc1 (stereo not drawn) [Compound 74] | 3 | –
O=C(CCC(Cc1cccc(-c2cccc(C(=O)O)c2)c1)C(=O)O)NO (stereo not drawn) [Compound 72] | 0.05 | –
O=CN(O)CCC(Oc1cccc(C(=O)O)c1)C(=O)O (stereo not drawn) [Compound 79] | 65.5 | –
O=CN(O)CCCCC(Cc1cccc(C(=O)O)c1)C(=O)O (stereo not drawn) [Compound 76] | 100 | –
O=C(CSCCCC(Cc1cccc(C(=O)O)c1)C(=O)O)NO (stereo not drawn) [Compound 17, 3-(2-Carboxy-5-hydroxycarbamoylmethyl-sulfanylpentyl)-benzoic acid] | 0.4 | –
O=CN(O)CCCC(Cc1cccc(C(=O)O)c1)C(=O)O (stereo not drawn) [Compound 77] | 2.22 | –
O=C(O)CCC(CCS)C(=O)O (stereo not drawn) [Compound D, 2-(2-sulfanylethyl)pentanedioic acid] | – | motor and sensory nerve conduction velocities (STZ-diabetic animals): increased both motor and sensory nerve conduction velocities; nerve conduction velocity (BB/W diabetic rats; 10 mg/kg daily, versus diabetic vehicle controls, from 8 weeks to six months, FIG. 12): significantly less severe nerve conduction deficits; withdrawal latency (BB/W diabetic rats; 10 mg/kg i.p. daily, versus diabetic vehicle-treated rats, from 4 weeks through six months of treatment, FIG. 11): longer withdrawal latencies; neuropathic hyperalgesia (withdrawal latency) (STZ-diabetic rats [1]): reversed towards normal; neuropathic pain abnormalities (STZ-diabetic rats [1]; lower doses 1 and 3 mg/kg, treatment initiated 7 weeks after STZ, FIG. 23): Significant reduction in pain abnormalities; hyperalgesic response (withdrawal latency difference score) [2]: completely reversed; motor nerve conduction velocity (STZ-diabetic rats [3]): reversed the motor nerve conduction velocity towards normal; motor nerve conduction (STZ-diabetic rats [3]; lower doses 1 and 3 mg/kg, treatment from 7 weeks post STZ, 8 weeks after dosing): remained unimproved; sensory nerve conduction (STZ-diabetic rats [3]; lower doses 1 and 3 mg/kg, treatment from 7 weeks post STZ, within 4 weeks of treatment): significantly improved towards normal; sensory and motor nerve conduction velocity deficits (STZ-diabetic rats [3]; untreated until 60 days after STZ, external CRO, FIGS. 26 and 27): Partial reversal of both deficits
CC(C)(C)c1cc(CC(CCC(=O)NO)C(=O)O)cc(C(=O)O)c1 (stereo not drawn) [Compound 2, 3-tert-Butyl-5-(2-carboxy-4-hydroxycarbamoyl-butyl)-benzoic acid] | 0.06 | –
O=C(O)CCC(CCC(=O)NO)C(=O)O (stereo not drawn) [Compound 83] | 2 | –
O=C(CCC(Cc1ccccc1C(=O)O)C(=O)O)NO (stereo not drawn) [Compound 73] | 2 | –
O=C(O)c1cccc(CC(CCCS)C(=O)O)c1 (stereo not drawn) [Compound E, 3-carboxy-alpha-(3-mercaptopropyl)benzenepropanoic acid] | – | neuropathic hyperalgesia (withdrawal latency) (STZ-diabetic rats [1]): reversed towards normal; motor nerve conduction velocity (STZ-diabetic rats [3]): reversed the motor nerve conduction velocity towards normal
O=C(O)CCC(CCCC(=O)NO)C(=O)O (stereo not drawn) [Compound 85] | 0.9 | –
O=C(CCC(Cc1ccc(C(=O)O)cc1)C(=O)O)NO (stereo not drawn) [Compound 75, 4-[2-carboxy-5-(hydroxyamino)-5-oxopentyl]benzoic acid] | 0.03 | –
O=CN(O)CCC(Cc1cccc(C(=O)O)c1)C(=O)O (stereo not drawn) [Compound 78] | 10.3 | –
O=C(CSCCCC(Cc1ccc(C(=O)O)c(Br)c1)C(=O)O)NO (stereo not drawn) [Compound 65, 2-Bromo-4-(2-carboxy-5-hydroxycarbamoylmethyl-sulfanylpentyl)-benzoic acid] | 3 | –
O=C(O)CCC(Cc1cccc(C(=O)NO)c1)C(=O)O (stereo not drawn) [Compound 94] | 40 | –
COC(=O)c1cccc(CC(C(=O)O)C(=O)NO)c1 (stereo not drawn) [Compound 10, 3-(2-Carboxy-2-hydroxycarbamoyl-ethyl)-benzoic acid methyl ester] | 100 | –
O=C(Cc1ccc(CC(Cc2cccc(C(=O)O)c2)C(=O)O)cc1)NO (stereo not drawn) [Compound 90] | 25.8 | –
O=C(O)CCC(=O)NO [Compound 84] | 40 | –
O=C(O)CCC(C(=O)O)C(=O)NO (stereo not drawn) [Compound 86] | 4 | –
CC(C)(C)c1cc(CC(CCCC(=O)NO)C(=O)O)cc(C(=O)O)c1 (stereo not drawn) [Compound 71] | 0.5 | –
CCC(SCCCC(Cc1cccc(C(=O)O)c1)C(=O)O)C(=O)NO (stereo not drawn) [Compound 19, 3-[2-Carboxy-5-(1-hydroxycarbamoyl-propylsulfanyl)-pentyl]-benzoic acid] | 4 | –
